One block for each molecule: values may come before it. The source made the active and inactive calls.
Tests used:
[1] = target: T1, Corticotropin-releasing factor receptor 2/Corticotropin-releasing factor-binding protein (Homo sapiens, UniProt P24387+Q13324); test: activators of CRF receptor 2 with binding protein – uHTS hits, confirmation (AID 602473); assay type: functional; conditions: read-out: EC50_Mean
T1 sequence (Q13324 whole entry): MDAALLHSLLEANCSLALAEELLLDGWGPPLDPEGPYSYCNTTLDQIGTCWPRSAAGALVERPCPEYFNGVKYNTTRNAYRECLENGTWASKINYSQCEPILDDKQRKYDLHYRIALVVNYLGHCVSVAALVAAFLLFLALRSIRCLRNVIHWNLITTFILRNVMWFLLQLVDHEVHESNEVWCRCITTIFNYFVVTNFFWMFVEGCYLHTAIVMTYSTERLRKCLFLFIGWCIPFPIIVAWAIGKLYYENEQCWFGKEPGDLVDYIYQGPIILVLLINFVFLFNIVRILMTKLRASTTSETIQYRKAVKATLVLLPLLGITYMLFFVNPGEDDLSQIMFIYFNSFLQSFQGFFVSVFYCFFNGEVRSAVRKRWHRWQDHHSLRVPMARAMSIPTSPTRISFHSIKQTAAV
T1 sequence (P24387 whole entry): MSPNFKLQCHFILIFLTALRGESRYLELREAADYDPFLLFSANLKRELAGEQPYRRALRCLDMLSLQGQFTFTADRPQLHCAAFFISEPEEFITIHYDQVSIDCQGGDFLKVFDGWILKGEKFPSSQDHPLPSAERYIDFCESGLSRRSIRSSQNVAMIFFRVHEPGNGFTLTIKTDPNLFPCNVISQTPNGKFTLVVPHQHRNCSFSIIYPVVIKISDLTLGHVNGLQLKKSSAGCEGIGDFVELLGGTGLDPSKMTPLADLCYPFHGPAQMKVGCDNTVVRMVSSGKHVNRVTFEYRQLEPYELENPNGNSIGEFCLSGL

[2] = system: Streptococcus sp. 'group A'; test: Streptococcus pyogenes SK(-)GAS viability under kanamycin – luminescence, BacTiterGlo, confirmation, counter-screen for streptokinase expression inhibitor project, dose response (AID 1900); assay type: functional, organism-based
[3] = system: Streptococcus; test: GAS UMAA2166 growth inhibition – luminescence, BacTiterGlo, counter-screen for streptokinase expression inhibitor project, dose response (AID 1915); assay type: functional, organism-based;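 also: potency for reduction of bacterial viability or growth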
[4] = blockers of CRF-binding protein–CRF-R2 complex – cell-based, uHTS hits, 384-well, dose response (AID 651639); assay type: functional, Homo sapiens; conditions: read-out: IC50_Mean
[5] = target: T1, Corticotropin-releasing factor receptor 2/Corticotropin-releasing factor-binding protein; test: Dose Response confirmation of uHTS hits for small molecule antagonists of the CRF-binding protein and CRF-R2 receptor complex.; assay type: functional; conditions: read-out: IC50_Mean
[6] = target: Large T antigen (Simian virus 40, UniProt P03070); assay type: functional, Betapolyomavirus macacae;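 also: Confirmatory-stage PubChem screen for compounds that inhibit SV40 T antigen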
Chain of Large T antigen (P03070 whole entry, the tested form may be a part): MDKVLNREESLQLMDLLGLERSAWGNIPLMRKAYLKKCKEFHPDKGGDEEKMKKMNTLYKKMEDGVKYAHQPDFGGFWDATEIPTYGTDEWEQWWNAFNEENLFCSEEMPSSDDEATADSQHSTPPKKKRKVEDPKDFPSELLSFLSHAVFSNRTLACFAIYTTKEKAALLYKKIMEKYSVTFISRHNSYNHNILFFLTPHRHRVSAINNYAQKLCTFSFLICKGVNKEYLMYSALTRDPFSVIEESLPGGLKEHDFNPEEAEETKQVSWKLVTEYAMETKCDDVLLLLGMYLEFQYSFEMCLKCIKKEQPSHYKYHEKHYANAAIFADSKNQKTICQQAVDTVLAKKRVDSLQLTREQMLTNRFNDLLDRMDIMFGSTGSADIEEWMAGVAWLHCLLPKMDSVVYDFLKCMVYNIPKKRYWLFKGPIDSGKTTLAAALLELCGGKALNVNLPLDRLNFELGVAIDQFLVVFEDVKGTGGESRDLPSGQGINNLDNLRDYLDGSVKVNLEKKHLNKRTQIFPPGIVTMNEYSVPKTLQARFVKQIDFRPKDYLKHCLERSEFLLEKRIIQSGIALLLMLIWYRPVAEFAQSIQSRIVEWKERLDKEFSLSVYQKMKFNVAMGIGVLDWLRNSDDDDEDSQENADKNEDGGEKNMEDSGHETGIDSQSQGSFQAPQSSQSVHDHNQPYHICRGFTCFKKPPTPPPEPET

[7] = Fluorescence-based cell-based high throughput dose response assay for inhibitors of the interaction of nucleotide-binding oligomerization domain containing 2 (NOD2) and the receptor-interacting serine-threonine kinase 2 (RIPK2).; assay type: functional; conditions: Homo sapiens
[8] = target: T2, Microphthalmia-associated transcription factor (Homo sapiens, UniProt O75030); test: reducers of TRPM1 reporter luminescence, concentration series – cell-based, SK-MEL-5, cherry-picked, set 3, MITF inhibitor project, dose response (AID 493073); assay type: functional;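 also: SK-MEL-5 melanoma cells with luciferase driven by the MITF target TRPM1 promoter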
T2 sequence (O75030 whole entry): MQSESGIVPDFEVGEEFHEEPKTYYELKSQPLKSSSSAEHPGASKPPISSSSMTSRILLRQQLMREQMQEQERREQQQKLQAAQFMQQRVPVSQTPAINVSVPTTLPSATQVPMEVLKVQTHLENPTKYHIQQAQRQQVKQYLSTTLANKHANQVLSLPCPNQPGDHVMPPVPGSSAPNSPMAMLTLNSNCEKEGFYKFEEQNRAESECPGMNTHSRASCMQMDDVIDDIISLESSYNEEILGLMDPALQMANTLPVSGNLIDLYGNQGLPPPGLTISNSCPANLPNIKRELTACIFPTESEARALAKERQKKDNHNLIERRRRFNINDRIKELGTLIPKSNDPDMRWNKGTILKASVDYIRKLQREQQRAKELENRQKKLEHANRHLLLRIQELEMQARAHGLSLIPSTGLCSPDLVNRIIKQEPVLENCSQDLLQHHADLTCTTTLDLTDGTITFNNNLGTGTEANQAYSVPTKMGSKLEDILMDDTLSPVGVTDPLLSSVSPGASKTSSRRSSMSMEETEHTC

[9] = HIV-1 AD8 envelope cell-cell fusion blockers – cherry-pick, dose response (AID 652062); assay type: functional, cell-based;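 also: luciferase signal from cell-cell fusion driven by HIV-1 clade B AD8 Env; potency is for inhibitors of fusion seen as a drop in luminescence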
[10] = blockers of HIV-1 envelope-mediated cell-cell fusion – cherry-pick, dose response (AID 652057); assay type: functional, cell-based
[11] = blockers of HIV-1 ZM109 envelope-driven cell-cell fusion – HeLa effector, CEM target cells, luciferase, cherry-pick, dose response (AID 652058); assay type: functional, cell-based;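 also: luciferase signal from HIV-1 Env mediated cell-cell fusion of effector and target cells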
[12] = viability loss in CEM21 cells – cell-based, CellTiter-Glo luminescence, cherry-picked, cytotoxicity control for viral fusion inhibitor project, dose response (AID 652042); assay type: functional;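 also: potency for signal decrease meaning cytotoxicity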
[13] = off-target signal loss in HeLa-CEM21 co-culture – HeLa F-luc CTL cells, cherry-picked, counter-screen for HIV-1 Env fusion inhibitor project, dose response (AID 652040); assay type: functional, cell-based;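 also: potency for signal decrease marking cytotoxic or nonspecific inhibition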
[14] = target: T3, Galanin receptor type 3 (Homo sapiens, UniProt O60755); test: Fluorescence-based cell-based primary high throughput dose response assay to identify antagonists of the Galanin Receptor 3 (GalR3).; assay type: functional
T3 sequence (O60755 whole entry): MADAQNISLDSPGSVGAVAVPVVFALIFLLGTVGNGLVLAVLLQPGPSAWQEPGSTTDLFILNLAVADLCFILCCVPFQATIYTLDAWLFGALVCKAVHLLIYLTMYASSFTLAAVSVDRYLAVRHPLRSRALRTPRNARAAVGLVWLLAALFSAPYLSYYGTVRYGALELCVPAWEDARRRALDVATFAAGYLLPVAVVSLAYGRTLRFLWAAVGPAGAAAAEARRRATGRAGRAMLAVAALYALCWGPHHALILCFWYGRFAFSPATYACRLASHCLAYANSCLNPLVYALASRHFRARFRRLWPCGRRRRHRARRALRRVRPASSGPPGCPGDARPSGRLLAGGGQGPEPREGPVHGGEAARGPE

[15] = cells; assay type: functional, cell-based; conditions: HEK-CNG
[16] = target: FAD-linked sulfhydryl oxidase ALR (Homo sapiens, UniProt P55789); test: ALR-catalysed DTT oxidation blockers – biochemical, H2O2 detection, luminescence, cherry-pick, dose response (AID 493248)
Chain of FAD-linked sulfhydryl oxidase ALR (P55789 whole entry): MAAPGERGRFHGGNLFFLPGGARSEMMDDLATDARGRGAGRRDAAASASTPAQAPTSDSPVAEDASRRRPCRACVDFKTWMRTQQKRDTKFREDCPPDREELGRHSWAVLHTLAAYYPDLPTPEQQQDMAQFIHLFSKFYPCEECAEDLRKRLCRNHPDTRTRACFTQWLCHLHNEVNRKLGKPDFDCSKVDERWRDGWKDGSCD

[17] = OVCAR8 cell viability loss – plate reader, dry powder samples, PAX8 project, dose response (AID 743197); assay type: functional, cell-based; conditions: OVCAR-8
[18] = target: Paired box protein Pax-8 (Homo sapiens, UniProt Q06710); test: PAX8 transcriptional activity inhibition in RMG-I – RMG-I cells, luciferase, cherry-pick, dose response (AID 687027); assay type: functional, cell-based;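 also: luciferase reporter driven by Pax8 target thyroperoxidase promoter measured by SteadyGlo luminescence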
Chain of Paired box protein Pax-8 (Q06710 whole entry): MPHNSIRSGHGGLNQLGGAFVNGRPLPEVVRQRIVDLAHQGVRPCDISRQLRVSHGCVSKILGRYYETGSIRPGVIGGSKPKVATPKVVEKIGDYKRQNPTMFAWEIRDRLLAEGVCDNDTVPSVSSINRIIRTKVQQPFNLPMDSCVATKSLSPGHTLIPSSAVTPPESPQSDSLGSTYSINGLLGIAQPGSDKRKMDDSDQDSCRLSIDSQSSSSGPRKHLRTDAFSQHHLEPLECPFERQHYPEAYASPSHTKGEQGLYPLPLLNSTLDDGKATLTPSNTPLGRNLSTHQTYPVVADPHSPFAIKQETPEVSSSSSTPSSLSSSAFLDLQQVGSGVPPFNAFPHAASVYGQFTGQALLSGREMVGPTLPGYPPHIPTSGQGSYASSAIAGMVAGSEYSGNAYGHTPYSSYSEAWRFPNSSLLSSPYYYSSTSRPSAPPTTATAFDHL

[19] = OVCAR-3 cell viability loss – plate reader, dry powder samples, PAX8 inhibitor project, dose response (AID 743044); assay type: functional, cell-based
[20] = target: Metabotropic glutamate receptor 5 (Rattus norvegicus, UniProt P31424); test: Identification of a glycine sulfonamide based non-MPEP site positive allosteric potentiator (PAM) of mGlu5 (calcium_assay).; assay type: functional
Chain of Metabotropic glutamate receptor 5 (P31424 whole entry): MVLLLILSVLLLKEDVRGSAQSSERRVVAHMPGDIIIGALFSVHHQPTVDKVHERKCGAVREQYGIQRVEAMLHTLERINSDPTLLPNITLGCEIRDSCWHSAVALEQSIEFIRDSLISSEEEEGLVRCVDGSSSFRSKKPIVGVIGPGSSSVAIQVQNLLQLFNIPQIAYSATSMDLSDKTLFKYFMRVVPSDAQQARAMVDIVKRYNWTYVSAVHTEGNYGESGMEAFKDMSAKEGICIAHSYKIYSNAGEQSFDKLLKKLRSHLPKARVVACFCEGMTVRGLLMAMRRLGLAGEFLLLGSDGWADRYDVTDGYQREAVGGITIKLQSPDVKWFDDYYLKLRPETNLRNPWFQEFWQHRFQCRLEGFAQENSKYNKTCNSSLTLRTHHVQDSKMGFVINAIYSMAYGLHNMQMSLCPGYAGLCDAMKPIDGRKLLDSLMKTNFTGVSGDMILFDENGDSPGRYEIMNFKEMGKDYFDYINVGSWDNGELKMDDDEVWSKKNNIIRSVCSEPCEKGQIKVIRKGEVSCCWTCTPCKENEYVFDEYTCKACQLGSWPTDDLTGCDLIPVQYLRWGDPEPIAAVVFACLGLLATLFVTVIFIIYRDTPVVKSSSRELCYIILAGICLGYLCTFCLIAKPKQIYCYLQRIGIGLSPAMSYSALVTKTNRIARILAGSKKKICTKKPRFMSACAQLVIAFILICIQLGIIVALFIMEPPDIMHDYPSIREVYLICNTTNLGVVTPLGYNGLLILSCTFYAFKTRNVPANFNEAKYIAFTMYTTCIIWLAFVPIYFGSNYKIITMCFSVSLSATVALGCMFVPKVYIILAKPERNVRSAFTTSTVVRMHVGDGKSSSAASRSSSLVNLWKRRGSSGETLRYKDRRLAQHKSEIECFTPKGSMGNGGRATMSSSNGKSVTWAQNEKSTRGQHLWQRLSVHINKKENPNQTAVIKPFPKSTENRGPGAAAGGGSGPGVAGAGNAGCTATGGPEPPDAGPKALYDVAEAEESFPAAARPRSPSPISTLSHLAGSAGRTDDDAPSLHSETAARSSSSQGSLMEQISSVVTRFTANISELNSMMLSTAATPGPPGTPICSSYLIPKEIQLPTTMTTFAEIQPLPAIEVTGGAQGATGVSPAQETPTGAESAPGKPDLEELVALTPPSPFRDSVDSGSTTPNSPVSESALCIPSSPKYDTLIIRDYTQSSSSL

[21] = inhibition of ADAM10 peptide cleavage – biochemical, FRET peptide substrate, recombinant human ADAM10, selectivity assay for ADAM17 exosite inhibitor project, dose response (AID 743259);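 also: ADAM10 enzyme cleaving a FRET peptide substrate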
[22] = target: Disintegrin and metalloproteinase domain-containing protein 17 (Homo sapiens, UniProt P78536); test: exosite inhibitors of ADAM17, dose response, biochemical (AID 743260)
Chain of Disintegrin and metalloproteinase domain-containing protein 17 (P78536 whole entry, the tested form may be a part): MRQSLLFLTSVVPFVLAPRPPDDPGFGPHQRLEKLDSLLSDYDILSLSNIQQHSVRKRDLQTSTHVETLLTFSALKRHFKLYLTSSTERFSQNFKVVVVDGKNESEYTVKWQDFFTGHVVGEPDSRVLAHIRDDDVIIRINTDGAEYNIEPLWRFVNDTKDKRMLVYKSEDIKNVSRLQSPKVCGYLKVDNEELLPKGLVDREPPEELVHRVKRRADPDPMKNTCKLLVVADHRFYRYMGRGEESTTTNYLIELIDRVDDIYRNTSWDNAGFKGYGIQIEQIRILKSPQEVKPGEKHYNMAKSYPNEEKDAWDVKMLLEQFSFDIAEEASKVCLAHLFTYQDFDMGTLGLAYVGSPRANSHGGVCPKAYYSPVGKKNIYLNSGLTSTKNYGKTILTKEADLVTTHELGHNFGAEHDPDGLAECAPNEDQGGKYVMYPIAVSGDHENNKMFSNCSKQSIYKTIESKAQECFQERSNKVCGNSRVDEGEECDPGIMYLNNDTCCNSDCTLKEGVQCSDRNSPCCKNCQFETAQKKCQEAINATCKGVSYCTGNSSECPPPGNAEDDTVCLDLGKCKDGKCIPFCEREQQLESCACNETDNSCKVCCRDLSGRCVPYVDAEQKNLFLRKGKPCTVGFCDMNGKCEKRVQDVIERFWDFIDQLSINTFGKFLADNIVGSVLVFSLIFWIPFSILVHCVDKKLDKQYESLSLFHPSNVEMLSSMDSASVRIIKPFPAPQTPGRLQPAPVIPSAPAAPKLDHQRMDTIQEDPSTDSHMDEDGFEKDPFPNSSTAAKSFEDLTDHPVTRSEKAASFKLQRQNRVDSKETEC

[23] = Luminescence Cell-Based Dose Retest to Confirm Inhibitors of Cancer Stem Cells. [Related pubchem assays (depositor defined):AID2717, AID2721]; assay type: functional; conditions: Homo sapiens
[24] = activation of miR-122 Renilla sensor silencing – cell-based, Huh7 psiCHECK-miR122, Renilla luciferase, cherry-picked, dose response (AID 651956); assay type: functional;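 also: huh7 hepatoma cells stably carrying a psiCHECK-2 miR-122 sensor plasmid; renilla luciferase signal reporting endogenous miR-122 activity after 48 h compound exposure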
[25] = general mammalian cell viability loss – inhibitor set, cherry-pick, set 2, cytotoxicity control for miR-122 modulator project, dose response (AID 720697); assay type: functional, cell-based

Structure (SMILES): O=[N+]([O-])c1ccc(-c2cc(O)n3nc(-c4ccc(F)cc4)cc3n2)cc1
EC50 [1]: > 53 µM (inactive)
EC50 [2]: 4.2 µM (active)
EC50 [3]: 6.44 µM (active)
IC50 [4]: 12.9 µM (active)
IC50 [5]: 27.4 µM (active)

Structure (SMILES): O=[N+]([O-])/C=C\c1ccc(N2CCOCC2)cc1
IC50 [6]: > 100 µM (active)
IC50 [7]: 4.32 µM (active)
AC50 [8]: 13.6 µM (active)

Structure (SMILES): Cc1ccccc1S(=O)(=O)N(C)C[C@@H]1OCc2ccccc2-c2c(n(C)c3ccccc23)C(=O)N([C@H](C)CO)C[C@@H]1C
AC50 [9]: 3.16 µM (active)
AC50 [10]: 1.37 µM (active)
AC50 [11]: 1.75 µM (active)
AC50 [12]: 31.6 µM (active)
AC50 [13]: 1.66 µM (active)

Structure (SMILES): O=C(Nc1ccc(Oc2ccccc2)cc1)c1csc(COCCO)n1
IC50 [14]: 1.39 µM (active)
EC50 [15]: > 29.9 µM (inactive)

AC50 [16]: 0.025 µM (active)
EC50 [1]: > 53 µM (inactive)
IC50 [4]: > 20 µM (inactive)
IC50 [5]: 33.1 µM (active)
Structure (SMILES): Cc1nc2c(C)cccc2cc1C(=O)N/N=C/c1ccc(O)cc1

Structure (SMILES): C[C@H]1CCCCO[C@H](CN(C)C(=O)C2CCCCC2)[C@@H](C)CN([C@@H](C)CO)C(=O)c2cc(NS(=O)(=O)c3ccc(Cl)cc3)ccc2O1
AC50 [17]: > 70 µM (inactive)
AC50 [18]: 11.5 µM (active)
AC50 [19]: 33.9 µM (active)

EC50 [20]: 4.43 µM
Structure (SMILES): CS(=O)(=O)N1c2ccccc2CCC1C(=O)Nc1nccs1 (stereo not given)

IC50 [22]: > 69.5 µM (inactive)
Structure (SMILES): CCOC(=O)C1=C(C(=O)OCC)C2N(Cc3ccc(C#N)cc3)c3ccccc3[C@@]23C[C@@H](C(=O)OC)N(S(=O)(=O)c2ccc(OC)cc2)C3=N1 (stereo not given in full)
IC50 [21]: 15.4 µM (inactive)

Structure (SMILES): C/C(=N/Nc1ccc([N+](=O)[O-])cc1)c1ccc(C)cc1C
IC50 [21]: 20.5 µM (inactive)
AC50 [23]: 5.92 µM (active)
IC50 [22]: > 69.5 µM (inactive)

Structure (SMILES): CN(C)c1ncnc2c1ncn2C1OC(CO)C(O)C1O (stereo not given)
AC50 [24]: 25.4 µM (active)
AC50 [25]: 8.52 µM (active)
